{
  "source": "patent US10849988B2",
  "about": "“Hydrogel for engineered immune response to D-chirality peptides” (THE REGENTS OF THE UNIVERSITY OF CALIFORNIA, priority 2016, dated 2020)",
  "tested_on": "macrophages",
  "assay": "In vitro macrophage assay, mRNA production of key markers of inflammation",
  "format": "cell-based",
  "description": "FIGS. 6A-6I show data from comparative studies on D and L peptides. […] Note: in 1:1 L/D samples the L gels are unlabeled. FIG. 6B) Quantification of CD11b positive cells (immune cells) within and around gel within a healed dermal wound bed at Day 21 (ex. FIG. 6A). FIG. 6C) Comparing cell recruitment into subcutaneously-injected gels as a function of adaptive immune competence (Balb/c) versus adaptive immune incompetence (Rag2gc−/−). FIG. 6D) Fraction of immune cell to total cell recruitment within a subcutaneously injected gels as a function of adaptive immune competence (Balb/c) versus adaptive immune incompetence (Rag2gc−/−). FIGS. 6E-I) mRNA production of key markers of inflammation within an in vitro macrophage assay upon exposure to DI water, Lipid Polysaccharide (LPS) 500 ug/mL, D-MMP crosslinker 500 ug/mL, and LPS+D-MMP.",
  "note": "Where no end group is shown, it is not given here. [ ]: non-standard residue; d: D form.",
  "data": [
    {"substance": "Gly Cys Arg Asp Gly Pro d-Gln Gly d-Ile d-Trp Gly Gln Asp Arg Cys Gly (GCRDGP[dQ]G[dI][dW]GQDRCG; cysteine pairing not given here) [D-MMP]", "values": [
      {"measurement": "effect on macrophages (mRNA of key markers of inflammation) relative to the positive control (LPS)", "setting": "D-MMP crosslinker 500 ug/mL alone", "result": "no direct effect"},
      {"measurement": "effect on macrophages (mRNA of key markers of inflammation) when combined with the positive control (LPS)", "setting": "LPS+D-MMP, each 500 ug/mL", "result": "some additive affects"}
    ]}
  ]
}
